What was measured:
human TG1 = target: T1, human TG1 (Homo sapiens, UniProt P22735); test: Inhibition of recombinant Transglutaminase activity (fluorescent substrate), human TG1; format: biochemical; details: human recombinant TG1, Fig 2B; read-out: IC50 to inhibit TG1
T1 construct: purchased Zedira
T1 sequence (P22735 1-817): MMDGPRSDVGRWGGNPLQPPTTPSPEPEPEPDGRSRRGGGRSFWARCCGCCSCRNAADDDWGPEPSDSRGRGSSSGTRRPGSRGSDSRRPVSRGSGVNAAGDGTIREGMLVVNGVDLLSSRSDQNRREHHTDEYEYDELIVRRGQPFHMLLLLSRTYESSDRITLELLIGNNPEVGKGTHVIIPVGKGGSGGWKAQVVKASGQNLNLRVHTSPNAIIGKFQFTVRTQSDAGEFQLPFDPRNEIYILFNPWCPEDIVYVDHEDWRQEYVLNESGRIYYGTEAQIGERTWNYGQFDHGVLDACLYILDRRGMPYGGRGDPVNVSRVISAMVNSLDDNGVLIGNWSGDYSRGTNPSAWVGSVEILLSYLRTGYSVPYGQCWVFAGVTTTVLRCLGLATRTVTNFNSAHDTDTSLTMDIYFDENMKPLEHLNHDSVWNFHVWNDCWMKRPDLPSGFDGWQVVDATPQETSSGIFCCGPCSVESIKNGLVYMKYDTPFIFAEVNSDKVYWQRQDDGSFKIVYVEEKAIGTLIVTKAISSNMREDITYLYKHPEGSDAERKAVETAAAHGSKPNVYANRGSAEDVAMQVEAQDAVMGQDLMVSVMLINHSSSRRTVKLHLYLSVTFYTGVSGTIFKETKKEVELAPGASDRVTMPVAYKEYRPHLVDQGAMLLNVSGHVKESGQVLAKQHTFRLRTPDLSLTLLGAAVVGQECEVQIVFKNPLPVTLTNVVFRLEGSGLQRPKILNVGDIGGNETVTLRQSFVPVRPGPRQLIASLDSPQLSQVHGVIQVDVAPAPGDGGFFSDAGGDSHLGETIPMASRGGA
Method: (§1) The potency and specificity of TG2 inhibitors was assessed with various recombinant TGs, as previously described. The reaction buffer (50 mM Tris, 100 mM NaCl, 10 mM CaCl2, 5 mM H-Gly-OMe*HCl (glycinemethylestherhydrochloride, Sigma), 5 mM hexadimethinbromide (Sigma), 9.1 mM DTT, pH 7.5) was heated to 37°C in a 96 well plate. Then 50 μM of the TG substrate Abz-NE(CAD-DNP)EQVSPLTLLK-OH (Zedira) was added. 1 μg/ml recombinant TG (human TG1, human (hTG2) / mouse TG2 (mTG2) or human Factor XIII (FXIII); Zedira) were added. The two lyophilized TG2 inhibitors (see Fig 1 for chemical structure) BJJF078 (3,4-Dimethoxy-N-(5-[4-(acryloylamino)piperidine-1-sulfonyl]-naphthalen-1-yl)-benzamide, kindly provided by Dr S. El Alaoui, Covalab, France) and ERW1041E (2-[(3-Bromo-4,5-dihydro-isoxazol-5-ylmethyl)-carbamoyl]-pyrrolidine-1—carboxylic acid quinolin-3-ylmethyl ester, kindly provided by Prof C. Khosla, Stanford University, USA) were dissolved in DMSO (stock solution: 54 mM) and stored at -80°C. These stocks were further diluted and various concentrations of the TG2 inhibitors (0.3 nM to 100 μM), were added to the wells (final DMSO concentration per well: 0.06%). The relative increase in fluorescence emission, correlating with enzymatic activity, was measured over 4 h with a fluorimeter (Excitation: 320nm, emission: 405 nm; Fluostar, GMB).

[1] = target: T2, recombinant mouse TG2 (mTG2) (Mus musculus, UniProt P21981); test: Inhibition of recombinant Transglutaminase activity (fluorescent substrate), mouse TG2; format: biochemical; details: recombinant mouse TG2, Fig 2A
T2 construct: purchased Zedira
T2 sequence (P21981 1-686): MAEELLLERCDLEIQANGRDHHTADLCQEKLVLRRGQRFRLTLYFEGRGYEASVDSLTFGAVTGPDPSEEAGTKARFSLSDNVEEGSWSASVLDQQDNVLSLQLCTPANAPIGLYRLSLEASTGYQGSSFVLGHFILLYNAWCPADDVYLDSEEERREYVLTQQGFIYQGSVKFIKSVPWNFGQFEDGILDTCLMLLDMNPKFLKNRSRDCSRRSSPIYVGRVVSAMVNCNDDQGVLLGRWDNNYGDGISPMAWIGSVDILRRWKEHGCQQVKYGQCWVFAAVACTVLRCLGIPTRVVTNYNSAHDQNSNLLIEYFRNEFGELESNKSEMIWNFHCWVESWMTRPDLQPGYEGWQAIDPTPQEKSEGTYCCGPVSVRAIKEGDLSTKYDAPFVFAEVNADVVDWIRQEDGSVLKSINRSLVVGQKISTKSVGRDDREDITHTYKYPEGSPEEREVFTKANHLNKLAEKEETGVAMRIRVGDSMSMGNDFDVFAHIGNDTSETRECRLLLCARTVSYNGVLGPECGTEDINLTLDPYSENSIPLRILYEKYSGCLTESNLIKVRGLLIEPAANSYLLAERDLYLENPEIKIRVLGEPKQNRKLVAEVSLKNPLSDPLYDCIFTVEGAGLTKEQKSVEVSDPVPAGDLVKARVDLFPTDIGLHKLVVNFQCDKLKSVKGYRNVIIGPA
Method: as §1

EAE C57BL/6 mice = test: MOG35-55 induced EAE in C57BL/6 mice, treatment with TG2 inhibitors; format: in vivo, mouse; details: for loss of body weight compared to vehicle / severity of motor symptoms compared to vehicle: 25 mg/kg i.p. twice daily from onset of EAE symptoms
Source text: All animal experiments were approved by the animal ethical committee of the VU University Medical Center and carried out within the animal facility of the Vrije Universiteit Amsterdam (protocol number ANW14-02). C57BL/6 (C57BL/6JOlaHsd) mice were purchased from Harlan (The Netherlands) at an age of 10 weeks and acclimatized to the new environment with water and food access ad libitum for 2 weeks before EAE induction. Humane endpoints were taken into account to prevent unnecessary suffering of the animals.
Active EAE was induced with the myelin oligodendrocyte glycoprotein peptide amino acids 35-55 (MOG35-55) from a EAE induction kit (Hooke laboratories), according to the provided protocol. In short, mice were injected subcutaneously in the upper and lower back with 100 μl of an emulsion of MOG35-55 in complete Freund’s adjuvant (CFA, containing heat inactivated Mycobacterium tuberculosis) each. At 3 hours and 26 hours after the subcutaneous injection of the emulsion, mice received an intraperitoneal injection of 150 ng pertussis toxin dissolved in PBS (volume: 0.1 ml). Disease symptoms and bodyweight were assessed daily starting from day 7 after immunization according to the following scale: 0 no disease, 0.5: partial tail weakness, 1: tail paralysis, 2: hind limb weakness, 3: partial hind limb paralysis, 4: complete hind limb paralysis, 5: moribund, dead.
The mice were injected twice daily with BJJF078 (n = 11) or ERW1041 (n = 12), starting from the onset of EAE symptoms until the end of the experiment (day 21/day 28 after immunization). The EAE animals were injected intraperitoneally with an inhibitor dose of 25 mg/kg bodyweight (i.e. ~100 μl) containing 20% DMSO, while the corresponding control groups (n = 12 and n = 10) were injected with PBS in 20% DMSO.

SMILES | IC50 (human TG1) [µM] | IC50 [1] [µM] | loss of body weight compared to vehicle (EAE C57BL/6 mice) | severity of motor symptoms compared to vehicle (EAE C57BL/6 mice) | average maximal disease score (EAE C57BL/6 mice; 25 mg/kg i.p. twice daily from onset, scale 0-5, vehicle 3.9) [score]
O=C(NCC1CC(Br)=NO1)C1CCCN1C(=O)OCc1cnc2ccccc2c1 (stereo not drawn) [ERW1041E, 2-[(3-Bromo-4,5-dihydro-isoxazol-5-ylmethyl)-carbamoyl]-pyrrolidine-1—carboxylic acid quinolin-3-ylmethyl ester] | 0.44 | 6.8 | not affected | modest but significant reduction | 3.4
C=CC(=O)NC1CCN(S(=O)(=O)c2cccc3c(NC(=O)c4ccc(OC)c(OC)c4)cccc23)CC1 [BJJF078, 3,4-Dimethoxy-N-(5-[4-(acryloylamino)piperidine-1-sulfonyl]-naphthalen-1-yl)-benzamide] | 0.16 | 0.054 | no differences | no differences | 

Source: PMC5918173, “Characterization of Transglutaminase 2 activity inhibitors in monocytes in vitro and their effect in a mouse model for multiple sclerosis” (PLoS ONE, 2018)
